Source: patent US10017817B2, “Skin activation by acceleration of PDGF-BB activity” (Shiseido Company, Ltd., priority 2010, dated 2018)

B1: PDGF-BB: platelet-derived growth factor-BB protein (R&D Systems Inc.), homodimer of the PDGF B chain (protein, UniProt P01127 82-190, looked up)
Platelet-derived growth …: SLGSLTIAEPAMIAECKTRTEVFEISRRLIDRTNANFLVWPPCVEVQRCSGCCNNRNVQCRPTQVQLRPVQVRKIEIVRKKPIFKKATVTLEDHLACKCETVAAARPVT
modifications: homodimer
notes: platelet-derived growth factor-BB protein (R&D Systems Inc.), homodimer of the PDGF B chain

Columns and labels:
[1] = system: PDGF-BB expression in human vascular endothelial cells HUVEC; assay: Evaluation of PDGF-B production accelerating action in vascular endothelial cells (ELISA and quantitative RT-PCR); format: cell-based; conditions: retinoic acid at 1 μm or 10 μm vs DMSO solvent control, cultured 2 days, PDGF-BB in culture supernatant by ELISA and PDGF-B mRNA by quantitative PCR (FIG. 8)
Protocol: Evaluation of PDGF-B Production Accelerating Action in
Vascular Endothelial Cells
Human vascular endothelial cells HUVEC were sub-cultured in EGM-2 medium (Sanko Junyaku Co., Ltd.), and the fourth generation cells were suspended in Humedia-EG2 medium not containing VEGF-A (Kurabo Industries Ltd.), followed by disseminating in a collage-coated 24-well multiplate (Asahi Glass Co., Ltd.) at a ratio of 20,000 cells and culturing for 3 to 5 days at 37° C. until the cells reached confluence in the presence of 5% CO2. After replacing the medium with Humedia-EG2 medium (Kurabo Industries Ltd.) containing retinoic acid at 1 μm or 10 μm or DMSO used as a solvent control, culturing was further continued for 2 days. Following completion of culturing, the culture supernatant was recovered and PDGF-BB was quantified in accordance with the protocol provided using Human PDGF-BB Quantikine ELISA Kit (R&D Systems Inc.). […] One-step quantitative RT-PCR was then carried out on the PDGF-B gene for each sample using an equal volume of mRNA as template, using the primer pair of SEQ ID NO: 9 and SEQ ID NO: 10, and using QuantiFast SYBR Green RT-PCR Kit (Qiagen Inc.) for the reaction reagent and LightCycler (Roche Diagnostics GmbH) for the reaction apparatus. […]

[2] = system: adipose-derived mesenchymal stem cells MSC; assay: Evaluation of migration ability of mesenchymal stem cells (cell insert assay); format: cell-based; conditions: 5 ng/ml to 30 ng/ml in StemPro serum-free MSC medium; overnight; in comparison with PDGF-AA and PDGF-AB (FIG. 2)
Protocol: Evaluation of Migration Ability
Commercially available adipose-derived mesenchymal stem cells MSC were purchased and sub-cultured in MesenPro mesenchymal stem cell medium (Invitrogen Corp.). Then, PDGF-AA, PDGF-AB or PDGF-BB (R&D Systems Inc.) was added to StemPro serum-free MSC medium (Invitrogen Corp.) in 24-well culture plates at a concentration of 5 ng/ml to 30 ng/ml, and fibronectin-coated cell inserts (BD Bioscience Inc.) were placed thereon followed by seeding 50,000 MSC suspended in StemPro medium. After culturing overnight in a CO2 incubator, the culture fluid was removed by aspiration. Thereafter, the cell inserts were immersed for 10 minutes in Hoechist 33258-PBS solution, and the nuclei of cells adhered to the cell insert were stained. After washing with PBS, the backs of the cell inserts were observed under a fluorescence microscope and images were captured. Five random images of each cell insert were captured followed by counting the number of cells that transferred to the cell insert.

| Molecule | acceleration of expression of PDGF-BB [1] | acceleration of expression of PDGF-BB ([1]; listed as retinoic acid) | migration ability of mesenchymal stem cells [2] |
| --- | --- | --- | --- |
| CC1=C(/C=C/C(C)=C/C=C/C(C)=C/C(=O)O)C(C)(C)CCC1 [tretinoin, all-trans retinoic acid] | concentration-dependent activity | accelerates expression of PDGF-BB |  |
| B1 |  |  | significantly enhance the migration ability of stem cells |
